In patent US11433019B2, “Ganoderma lucidum extract-preparing method using eco-friendly extraction technique, Ganoderma lucidum extract prepared thereby, and anti-aging cosmetic composition comprising same extract” (AMOREPACIFIC CORPORATION, priority 2017, dated 2022):

Legend:
[1] = tested on: matrix metalloprotease-1 (MMP-1); test: MMP-1 inhibitory effect: free MMP-1 in media of UV-irradiated HS68 fibroblasts (kit, Amersham RPN2610); type: cell-based; settings: 5 μM, UV 30 mJ, treated twice for 48 hours, corrected with control without test substance
Protocol: In order to confirm the inhibitory effect of Ganoderma lucidum extracts extracted with the aqueous cyclodextrin solution according to the present disclosure on matrix metalloprotease-1 (MMP-1) expression increased by ultraviolet rays, fibroblasts cells (HS68) were seeded at a concentration of 0.75*10^5 in each well of a 12 well plate and made to be a starvation state for 24 hours, then washed with phosphate buffered saline and irradiated with UV (30 mJ). Subsequently, as a positive control, 1, 10, and 50 ppm of Ganoderma lucidum extracts extracted with 5 μM of retinoic Acid (RA) and an aqueous cyclodextrin solution were treated twice for 48 hours, and the amount of free MMP-1 in the media was measured using a kit (Amersham, RPN2610).

[2] = tested on: collagenase; test: Collagenase production/expression in human fibroblasts (antibody-based absorbance at 405 nm); type: cell-based; settings: 5 μM, 24 hours, untreated group = 100
Protocol: The inhibitory ability of Ganoderma lucidum extracts extracted with the aqueous cyclodextrin solution according to the present disclosure on collagenase production was measured in comparison with retinoic acid. Human fibroblasts were added at 5,000 cells/well in a 96-well microtiter plate containing Dulbecco's Modified Eagle's Media (DMEM) medium containing 2.5% fetal bovine serum and incubated in an incubator (5% CO2, 37° C.) until the growth reached 70 to 80%. Then, the Ganoderma lucidum extracts, which were extracted using the 1% β-CD aqueous cyclodextrin solution in combination with ultrasonic extraction, were treated with the cells at a concentration of 100 μg/ml for 24 hours, and then the cell culture solution was collected.
Then, the degree of collagenase production in the thus-collected cell culture solution was measured using a commercially available collagenase measuring instrument (GE Healthcare Life Sciences). […]
The absorbance of the yellowish 96-well plate was measured at 405 nm using an absorptiometer, and the expression level of collagenase was calculated by Calculation Equation 1 below. In particular, the reaction absorbance of the collected cell culture solution in the untreated group was taken as the absorbance of the control group. […]
A: Absorbance of the test substance-treated cell group
B: Absorbance of control group […]

CC1=C(/C=C/C(C)=C/C=C/C(C)=C/C(=O)O)C(C)(C)CCC1 [Retinoic acid, retinoic Acid]
Extracellular MMP-1 (% of control) [1]: 66.2% of control
Degree of Collagenase Expression (%) [2]: 75.0%
